In patent US20060246095A1, “Multiepitope polypeptides for cancer immunotherapy” (HADASIT MEDICAL RESEARCH SERVICES & DEVELOPMENT LTD., priority 2003, published 2006):

What was measured:
[1] = tested on: T cell clone RB-154 (gp100 154-162 peptide); assay: Recognition assay for peptide presentation by DC (IFN-γ release ELISA), clone RB-154; type: cell-based, human; conditions: control plate; peptide-pulsed DC; clone RB-154
Procedure: (§1) Dendritic cells were isolated from cytopheresis MNCs of melanoma patients with the HLA haplotypes HIA-A*0201 and HLA-DRβ1*0401. DC were generated from plastic adherent PBMCs cultured in RPMI with 10% human AB-serum, L-glutamine, penicillin-streptomycin, supplemented with GM-CSF 1000 IU/ml and IL-4 1000 IU/ml. By day 6, immature DC were harvested for electroporation.
(§2) 2.5-3×10^6 DC were re-suspended in 100 μl nucleofector solution and added to 5 μg of DNA plasmid in 2-mm electrode gap cuvettes. Transfected DC were immediately plated with CM containing GM/IL4 or let mature using TNFα 100 ng/ml and PGE2 1000 ng/ml. GFP-transfected DCs were collected 16-24 hours later for FACS analysis.
(§3) DC were pulsed with 1 μg/ml of the relevant peptides at 1×10^6 cells/ml. Stimulants were added after 1 hour incubation without washing the peptide.
(§4) T cell clones were co-incubated with DC in flat 96-well plate for 24 hours. DC were plated immediately after their transfection or pulsing in 6 separated plates, in the presence of GM CSF and IL-4. 1×10^5 T cells were added to 1×10^5 pulsed or transfected DC. In the longitudinal study, T cell clones were added to the transfected/pulsed DC at the following time points: T0=immediately, +12=after 12 hours, 24, 36, 48 and 72 hours. Supernatants were collected after overnight incubation. Interferon gamma release assay was performed to evaluate T cell stimulation using the ELISA method, results are presented in pg/ml.
(§5) For recognition assay of DC epitope presentation, 1×10^5 cells from different T cell clones, that were grown from PBMCs of patients, and were restricted to particular melanoma antigen peptides, were co-incubated with 1×10^5 pulsed or transfected DC, in the presence of GM-CSF and IL-4. T cell clones were added to the transfected/pulsed DC at the following time points: T=0 immediately, T=12, 24, 36, 48, 72 hours. Supernatant was collected after overnight incubation and was subjected to interferon gamma release assay, in order to evaluate the specific T cell activity towards the particular peptide presented by the DC cells.
(§6) The results shown in the following tables represent the amount of Interferon-γ (pg/ml) secreted to the culture medium as an index for T cell stimulation.

[2] = tested on: T cell clone BR-B8 (DR4-restricted gp100 epitope 44-59); assay: Recognition assay for peptide presentation by DC (IFN-γ release ELISA), clone BR-B8; type: cell-based, human; conditions: control plate; peptide-pulsed DC; clone BR-B8
Procedure: as §1, §2
pcDNA-MEP and pcDNA-gp100 were co-transfected to detect Class II antigen presentation as an internal control.
BR-B8 which recognizes the DR4-restricted gp100 epitope 44-59.
as §4
(§7) Lactacystin was added to DC at concentrations of 25 μM and 50 μM, 4 hours post transfection. DC were incubated with lactacystin for 70 minutes and then washed twice.
(§8) Responding T cells were added after washing the lactacystin and co-incubated. Supernatents were collected after 20 hours.
as §5, §6

[3] = tested on: T cell clone CK3H6 (A2 restricted gp100 epitope 209-217); assay: Recognition assay for peptide presentation by DC (IFN-γ release ELISA), T cell clone CK3H6; type: cell-based, human
Procedure: as §1, §2, §3
CK3H6 which recognizes the A2 restricted gp100 epitope 209-217.
as §4, §7, §8, §5, §6

[4] = tested on: TIL 1383 (A2 restricted tyrosinase epitope 369-377); assay: Recognition assay for peptide presentation by DC (IFN-γ release ELISA), TIL 1383; type: cell-based, human; conditions: control plate; peptide-pulsed DC; TIL 1383
Procedure: as §1, §2, §3
TIL 1383 which recognizes the A2 restricted tyrosinase epitope 369-377.
as §4, §7, §8, §5, §6

[5] = tested on: TIL 1940 (A2 restricted MART-1 epitope 27-35); assay: Recognition assay for peptide presentation by DC (IFN-γ release ELISA), TIL 1940; type: cell-based, human; conditions: TIL 1940
Procedure: as §1, §2, §3
TIL 1940 which recognizes the A2 restricted MART-1 epitope 27-35.
as §4, §7, §8, §5, §6

[6] = tested on: DC with CM (no T cell clone); assay: Recognition assay, CM in place of a T cell clone (IFN-γ background of DC); type: cell-based, human; conditions: transfected or peptide-pulsed DC, CM instead of T cell clone
Procedure: as §1, §2, §3, §4, §5, §6

MHC = conditions: cited from earlier work
HHD mice = conditions: HLA-A2.1-restricted; cited from earlier work
[7] = tested on: CTLs in blood lymphocytes of breast carcinoma patients; conditions: personal communications; cited from earlier work
[8] = control plate, peptide-pulsed DC, T cell clone CK3H6
[9] = control plate, peptide-pulsed DC
[10] = transfected or peptide-pulsed DC, Donor 1, T = 12 hours, CK3H6
[11] = transfected or peptide-pulsed DC, Donor 1, T = 24 hours, CK3H6
[12] = transfected or peptide-pulsed DC, Donor 1, T = 36 hours, CK3H6
[13] = transfected or peptide-pulsed DC, Donor 1, T = 48 hours, CK3H6
[14] = transfected or peptide-pulsed DC, Donor 1, T = 72 hours, CK3H6
[15] = transfected or peptide-pulsed DC, Donor 2, T = 12 hours, CK3H6
[16] = transfected or peptide-pulsed DC, Donor 2, T = 24 hours, CK3H6
[17] = transfected or peptide-pulsed DC, Donor 2, T = 36 hours, CK3H6
[18] = transfected or peptide-pulsed DC, Donor 2, T = 48 hours, CK3H6
[19] = transfected or peptide-pulsed DC, Donor 2, T = 72 hours, CK3H6
[20] = transfected or peptide-pulsed DC, Donor 1, T = 12 hours
[21] = transfected or peptide-pulsed DC, Donor 1, T = 24 hours
[22] = transfected or peptide-pulsed DC, Donor 1, T = 36 hours
[23] = transfected or peptide-pulsed DC, Donor 1, T = 48 hours
[24] = transfected or peptide-pulsed DC, Donor 1, T = 72 hours
[25] = transfected or peptide-pulsed DC, Donor 2, T = 12 hours
[26] = transfected or peptide-pulsed DC, Donor 2, T = 24 hours
[27] = transfected or peptide-pulsed DC, Donor 2, T = 36 hours
[28] = transfected or peptide-pulsed DC, Donor 2, T = 48 hours
[29] = transfected or peptide-pulsed DC, Donor 2, T = 72 hours

MHC, sequence (P61769 21-119): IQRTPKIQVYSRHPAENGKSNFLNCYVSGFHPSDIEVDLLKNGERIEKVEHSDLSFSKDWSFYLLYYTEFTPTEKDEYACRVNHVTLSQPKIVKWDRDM

Substance | Interferon-γ secreted to the culture medium [1] | Interferon-γ secreted to the culture medium [2] | Interferon-γ secreted to the culture medium [3, 8] | Interferon-γ secreted to the culture medium [4] | Interferon-γ secreted to the culture medium [5, 9] | Interferon-γ secreted to the culture medium ([6]; Donor 1, T = 12 hours) | Interferon-γ secreted to the culture medium ([6]; Donor 1, T = 48 hours) | Interferon-γ secreted to the culture medium ([6]; Donor 1, T = 72 hours) | Interferon-γ secreted to the culture medium ([6]; Donor 2, T = 12 hours) | Interferon-γ secreted to the culture medium ([6]; Donor 2, T = 24 hours) | Interferon-γ secreted to the culture medium ([6]; Donor 2, T = 36 hours) | Interferon-γ secreted to the culture medium ([6]; Donor 2, T = 48 hours) | Interferon-γ secreted to the culture medium ([6]; Donor 2, T = 72 hours) | Interferon-γ secreted to the culture medium [3, 10] | Interferon-γ secreted to the culture medium [3, 11] | Interferon-γ secreted to the culture medium [3, 12] | Interferon-γ secreted to the culture medium [3, 13] | Interferon-γ secreted to the culture medium [3, 14] | Interferon-γ secreted to the culture medium [3, 15] | Interferon-γ secreted to the culture medium [3, 16] | further results
gp 100 154-162: peptide 154-162 of gp100, SEQ ID NO: 24 | >2000 pg/mL | 1 pg/mL | 7 pg/mL | 6 pg/mL | 6 pg/mL |  |  |  |  |  |  |  |  |  |  |  |  |  |  |  | 
TYR 369-377: peptide 369-377 derived from Tyrosinase, SEQ ID NO: 17 | 0 pg/mL | 1 pg/mL | 1 pg/mL | 69 pg/mL | 1 pg/mL |  |  |  |  |  |  |  |  |  |  |  |  |  |  |  | 
MART-1 27-35: peptide 27-35 of MART-1, SEQ ID NO: 18 | 1 pg/mL | 1 pg/mL | 1 pg/mL | 1 pg/mL | >2000 pg/mL | 10 pg/mL | 0 pg/mL | 0 pg/mL | 9 pg/mL | 7 pg/mL | 8 pg/mL | 0 pg/mL | 0 pg/mL | 11 pg/mL | 6 pg/mL | 10 pg/mL | 0 pg/mL | 0 pg/mL | 10 pg/mL | 10 pg/mL | Interferon-γ secreted to the culture medium [3, 17]: 8 pg/mL; Interferon-γ secreted to the culture medium [3, 18]: 0 pg/mL; Interferon-γ secreted to the culture medium [3, 19]: 0 pg/mL; Interferon-γ secreted to the culture medium [5, 20]: 9 pg/mL; Interferon-γ secreted to the culture medium [5, 21]: 435 pg/mL; Interferon-γ secreted to the culture medium [5, 22]: 99 pg/mL; Interferon-γ secreted to the culture medium [5, 23]: 0 pg/mL; Interferon-γ secreted to the culture medium [5, 24]: 0 pg/mL; Interferon-γ secreted to the culture medium [5, 25]: 448 pg/mL; Interferon-γ secreted to the culture medium [5, 26]: 254 pg/mL; Interferon-γ secreted to the culture medium [5, 27]: 49 pg/mL; Interferon-γ secreted to the culture medium [5, 28]: 0 pg/mL; Interferon-γ secreted to the culture medium [5, 29]: 0 pg/mL
gp 100 209-217: peptide 209-217 of gp100, SEQ ID NO: 16 | 1 pg/mL | 1 pg/mL | >2000 pg/mL | 1 pg/mL | 1 pg/mL | 9 pg/mL | 0 pg/mL | 0 pg/mL | 8 pg/mL | 6 pg/mL | 8 pg/mL | 0 pg/mL | 0 pg/mL | >2000 pg/mL | 31 pg/mL | 12 pg/mL | 0 pg/mL | 0 pg/mL | >2000 pg/mL | 18 pg/mL | Interferon-γ secreted to the culture medium [3, 17]: 11 pg/mL; Interferon-γ secreted to the culture medium [3, 18]: 0 pg/mL; Interferon-γ secreted to the culture medium [3, 19]: 0 pg/mL; Interferon-γ secreted to the culture medium [5, 20]: 10 pg/mL; Interferon-γ secreted to the culture medium [5, 21]: 1 pg/mL; Interferon-γ secreted to the culture medium [5, 22]: 13 pg/mL; Interferon-γ secreted to the culture medium [5, 23]: 0 pg/mL; Interferon-γ secreted to the culture medium [5, 24]: 0 pg/mL; Interferon-γ secreted to the culture medium [5, 25]: 12 pg/mL; Interferon-γ secreted to the culture medium [5, 26]: 6 pg/mL; Interferon-γ secreted to the culture medium [5, 27]: 7 pg/mL; Interferon-γ secreted to the culture medium [5, 28]: 0 pg/mL; Interferon-γ secreted to the culture medium [5, 29]: 0 pg/mL
MUC1/A7: peptide A7 (NLTISDVSV) of MUC1, SEQ ID NO: 26 (listed as Homo sapiens) |  |  |  |  |  |  |  |  |  |  |  |  |  |  |  |  |  |  |  |  | MHC-binding affinity (MHC): high; CTL induced upon vaccination, lysis of human carcinoma lines (HHD mice): effectively lysed the human carcinoma lines; activation of CTLs in blood lymphocytes, patients responding [7]: 2/4
MUC1/D6: peptide D6 (LLLTVLTVV) of MUC1, SEQ ID NO: 25 (listed as Homo sapiens) |  |  |  |  |  |  |  |  |  |  |  |  |  |  |  |  |  |  |  |  | MHC-binding affinity (MHC): high; CTL induced upon vaccination, lysis of human carcinoma lines (HHD mice): effectively lysed the human carcinoma lines; activation of CTLs in blood lymphocytes, patients responding [7]: 3/4
